Experiments:
[1] = system: hTNFα-induced neutrophil recruitment; assay: Neutrophil recruitment in mice, compound pre-mixed with hTNFα, i.p.; assay type: in vivo, Balb/c mice; settings: for neutrophil recruitment vs TNFα in the absence of the compound: sample 1, ratio compound:TNFα 0.1:1, i.p.
Procedure: In separate studies, compounds of formula (3) and formula (15) were mixed with 20 μM solutions of TNFα dissolved in phosphate buffered saline (PBS) to a concentration of 2 μM, 20 μM and 200 μM. The ratio of each compound to TNFα was, therefore, 0.1:1 (sample 1), 1:1 (sample 2) and 10:1 (sample 3). […] This process separates protein bound compound and free compound. A control sample containing PBS only was processed in the same way to provide a vehicle control for the study. The concentration of eluted protein was determined using a Nanodrop (ND-1000). The TNFα: compound complexes were diluted in PBS to a concentration for injection of 0.03 μg/kg
For the study, typically, each group contained 10 male Balb/c mice (Charles River) apart from an anti-human TNFα antibody positive control, which used a set of 5 mice.
Compound only mice were also included in the study to assess the effect of compound on neutrophil recruitment.
All mice were killed by cervical dislocation two hours post-injection of hTNFα (t=2 h) and the peritoneal cavity was lavaged with 3 mL of FACS buffer (500 mL PBS containing 2 g bovine serum albumin, 6 mL HEPES buffer and […]). Lavage fluid was aspirated and neutrophil numbers were assessed by staining cells with anti-Gr1 PE and anti-CD45 FITC by FACS as detailed below.
100 μL of lavage fluid from each sample was aliquoted into FACS tubes. A FACS cocktail was made up using anti-GR-1 PE (BD cat #553128 Lot #75542) at 1 in 39 dilution and anti-CD45 FITC (BD cat #553080 Lot #80807) at 1 in 19 dilution in FACS buffer. Fc block (BD Cat #553142 Lot #87810) was prepared 1 in 10 with FACS buffer and 10 μL added to each sample 5 minutes before adding the antibody cocktail. […] Samples were then left for 20 mins on ice. 1 mL of FACS Lyse solution (BD Cat #349202 Lot #29076, diluted 1:10 in dH2O) was added to each tube, mixed and left at room temperature for 5 minutes. 1 mL of FACS Buffer was then added to each tube and centrifuged at 400 g for 5 minutes. The FACS buffer was then carefully poured off and the tip of the tube dabbed on absorbent paper to leave the tube completely dry. Then […] of 1 in 10 Reference Bead solution (Sigma cat #P2477 Lot #116K1612) diluted in FACS buffer was added to each tube.
Samples were analysed using FACScalibur II and FloJo software.

[2] = target: T1, TNFα (Homo sapiens, UniProt P01375); assay: Fluorescence probed thermal denaturation assay (Thermofluor) of TNFα; assay type: binding; settings: TNFα + 5% DMSO + compound
Procedure: A fluorescence probed thermal denaturation assay was performed to assess the effect of the compounds on the thermal stability of TNFα as a measure of compound binding. The reaction mix contained 5 μl of 30×SYPRO® Orange dye (Invitrogen) and 5 μl of TNFα (at 1.0 mg/ml), 37.5 μl PBS, pH 7.4 and 2.5 μl of compound (at 2 mM in DMSO). 10 μl of the mix was dispensed in quadruplicate into a 384 PCR optical well plate and was run on a 7900HT Fast Real-Time PCR System […]. PCR
System heating device was set at 20° C. to 99° C. with a ramp rate of 1.1° C./min; fluorescence changes in the wells were monitored by a Charge-coupled device (CCD). The fluorescence intensity increase was plotted as a function of temperature and the Tm calculated as the midpoint of this denaturation curve (determined as the point of inflection) (Table 1).
Thermofluor measures the change of melting temperature (Tm) of TNFα due to compound either stabilising or disrupting the protein.
Target sequence in this assay (P01375 77-233 limits assumed): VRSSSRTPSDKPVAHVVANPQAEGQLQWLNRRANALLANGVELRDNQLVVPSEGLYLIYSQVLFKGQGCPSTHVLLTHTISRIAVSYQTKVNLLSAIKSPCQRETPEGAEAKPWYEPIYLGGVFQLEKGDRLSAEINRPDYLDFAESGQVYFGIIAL

[3] = target: T1, TNFα; assay: Mass spectrometric analysis of compound binding to TNFα (soft ionisation)
Procedure: Mass spectrometry was typically performed using a Waters LCT-premier Time-of-Flight mass spectrometer or a Waters SynaptG2 Q-TOF mass spectrometer. Samples were introduced using an Advion Triversa Nanomate nanoflow infusion device which replaces the conventional spectrometer source, sample injection was via an “A” series chip with […] nozzle size at a nominal flow rate of 100 nl/min. Further modifications to the Waters LCT-premier Time-of-Flight mass spectrometer include a customised source cooling device allowing precise control of the source temperature and a commercial pressure regulation device giving precise control over the vacuum conditions in the source region. Together these modifications help retain the TNFα trimer in a native, folded conformation and facilitate the detection of complexes formed with test compounds of weak affinities.
Ions were generated using standard positive ion electrospray conditions resulting in multiple charging of TNFα.
Mass spectrometry is very sensitive to the buffer salts present in the protein sample. Typical buffer salts such as potassium or sodium phosphates have a severely detrimental affect on ionisation. Accordingly protein samples were pre-treated to remove these salts using a Zeba desalt spin column, the protein being exchanged into a mass spectrometry compatible buffer system, typically 50 mM Ammonium Acetate at pH 6.8.
Typically the test compounds were presented as 10 mM DMSO stock solutions such that when they are incubated with TNFα in solution the final DMSO concentration is 5%. […] This is evidenced by the changes in the number of charges acquired by the protein under the various conditions described.
Test compounds were prepared as 10 mM solutions in dimethylsulphoxide (DMSO). Therefore, it was necessary to establish the effect of DMSO on the native TNFα trimer in the absence of a test compound. […]
Incubation of a library of test compounds, including the compound of formula (3) with TNFα was monitored by mass spectrometry under soft ionization conditions. […]
Target sequence in this assay (P01375 77-233 limits assumed): as above

[4] = target: T1, TNFα; assay: LC-MS of size exclusion fractions of TNFα, TNF-R and compound; assay type: binding; parameters: purchased R&D Systems; settings: either order of addition
Procedure: Fractions from size exclusion chromatographic separation of mixtures of TNFα, TNF-R and the compound of formula (3) were analysed by liquid chromatography-mass spectrometry (LC-MS). Two samples were prepared for size exclusion chromatography.
Target sequence in this assay (P01375 77-233 limits assumed): as above
Target sequence in this assay (P19438 30-211 partner limits assumed): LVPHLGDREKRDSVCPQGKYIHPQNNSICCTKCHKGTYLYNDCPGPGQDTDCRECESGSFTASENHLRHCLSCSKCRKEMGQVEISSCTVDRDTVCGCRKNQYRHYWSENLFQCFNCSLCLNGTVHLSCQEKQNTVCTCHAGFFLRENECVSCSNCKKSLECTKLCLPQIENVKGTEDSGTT

[5] = sample 2, ratio compound:TNFα 1:1, i.p.
[6] = sample 3, ratio compound:TNFα 10:1, i.p.

Structure (SMILES) | neutrophil recruitment vs TNFα in the absence of the compound [1] | inhibition of neutrophil recruitment [1, 5] | inhibition of neutrophil recruitment [1, 6] | Tm (° C.) (mean ± sd) [2] | Tm difference (= (TNF + cpd) - (TNF + DMSO)) [2] | effect on trimeric TNFα (charge state envelope) ([3]; 5% v/v DMSO) | binding to the monomeric form of TNFα ([3]; soft ionization) | stoichiometry of binding ([3]; soft ionization) | binding to TNFα in the presence of TNF-R [4]
Cc1ccc(C)c(Cn2c(C(O)c3ccncc3)nc3ccc(-c4cnn(C)c4)cc32)c1 (centres unmarked) [Compound 15] | not significantly different | 101% | 102% | 78.5 ± 1.1 (n = 4) ° C. | 17.1 °C | – | – | – | –
Cc1ccc(C)c(Cn2c(C(O)c3ccncc3)nc3ccccc32)c1 (centres unmarked) [Compound 3] | not significantly different | 86% | 85% | 73.2 ± 0.6 (n = 4) ° C. | 11.8 °C | stabilization of the trimeric TNFα complex | not observed to bind | one molecule of the compound of formula (3) per TNFα trimer | binds to TNFα even in the presence of TNF-R
